Drawing on PubChem BioAssay AID248 (DTP/NCI, 2004), this text covers T/C for 24 compounds.

This test relates to L1210 leukemia ip in BDF1 mice, survival T/C. Nature of the test: NCI In Vivo Anticancer Drug Screen. Data for tumor model L1210 Leukemia (intraperitoneal) in B6D2F1 (BDF1) mice. Particulars: endpoint: mean survival time, higher = longer survival. The method, boiled down:
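Transplanted-tumor mice were given test agent; controls received vehicle only. Survival readings from the two groups were divided (treated over control).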

The mark [1] stands for this setting: dose: 100.0 mg/kg/injection, schedule: Q01DX001 (ip), vehicle: Klucel (hydroxypropylcellulose) (HPC).
Where [2] appears, read: dose: 200.0 mg/kg/injection, schedule: Q01DX001 (ip), vehicle: Klucel (hydroxypropylcellulose) (HPC).
Setting [3] is: dose: 400.0 mg/kg/injection, schedule: Q01DX001 (ip), vehicle: Klucel (hydroxypropylcellulose) (HPC).
Setting [4] is: dose: 100.0 mg/kg/injection, schedule: Q04DX003 (ip), vehicle: saline.
[5] abbreviates: dose: 200.0 mg/kg/injection, schedule: Q04DX003 (ip), vehicle: saline.
Where [6] appears, read: dose: 400.0 mg/kg/injection, schedule: Q04DX003 (ip), vehicle: saline.
The mark [7] stands for this setting: dose: 100.0 mg/kg/injection, schedule: Q04DX002 (ip), vehicle: Klucel (hydroxypropylcellulose) (HPC).
Setting [8] is: dose: 200.0 mg/kg/injection, schedule: Q04DX002 (ip), vehicle: Klucel (hydroxypropylcellulose) (HPC).
The mark [9] stands for this setting: dose: 400.0 mg/kg/injection, schedule: Q04DX002 (ip), vehicle: Klucel (hydroxypropylcellulose) (HPC).
[10] abbreviates: dose: 100.0 mg/kg/injection, schedule: Q01DX009 (ip), vehicle: Klucel (hydroxypropylcellulose) (HPC).
The mark [11] stands for this setting: dose: 100.0 mg/kg/injection, schedule: Q04DX003 (ip), vehicle: Klucel (hydroxypropylcellulose) (HPC).
[12] abbreviates: dose: 200.0 mg/kg/injection, schedule: Q01DX009 (ip), vehicle: Klucel (hydroxypropylcellulose) (HPC).
The mark [13] stands for this setting: dose: 200.0 mg/kg/injection, schedule: Q04DX003 (ip), vehicle: Klucel (hydroxypropylcellulose) (HPC).
The mark [14] stands for this setting: dose: 400.0 mg/kg/injection, schedule: Q04DX003 (ip), vehicle: Klucel (hydroxypropylcellulose) (HPC).
The mark [15] stands for this setting: dose: 100.0 mg/kg/injection, schedule: Q01DX001 (ip), vehicle: saline.
Setting [16] is: dose: 200.0 mg/kg/injection, schedule: Q01DX001 (ip), vehicle: saline.
Setting [17] is: dose: 400.0 mg/kg/injection, schedule: Q01DX001 (ip), vehicle: saline.
Setting [18] is: dose: 400.0 mg/kg/injection, schedule: Q01DX009 (ip), vehicle: Klucel (hydroxypropylcellulose) (HPC).

Several values for one entry are separate records, joined by “and”; a condition that tells them apart may be missing. Equal entries are not always repeated. Inconclusive results and toxic doses are left out.

As for `CC(=O)OC(C)C(=O)Nc1ccccc1` (stereo not given), the T/C was 93 % of control under setting [1], 89 % of control under setting [2] and 96 % of control under setting [3].
As to `CN(C)c1ccc(N=Nc2ccc(Cl)c(Cl)c2)cc1`, the T/C was 98 % of control (dose: 50.0 mg/kg/injection, schedule: Q01DX009 (ip), vehicle: saline with Tween-80); 95 % of control (dose: 100.0 mg/kg/injection, schedule: Q01DX009 (ip), vehicle: saline with Tween-80); 87 % of control (dose: 200.0 mg/kg/injection, schedule: Q01DX009 (ip), vehicle: saline with Tween-80).
Take `CSc1nc(N=[N+]=[N-])n(C)n1`: the T/C (dose: 100.0 mg/kg/injection, schedule: Q04DX002 (ip), vehicle: saline with Tween-80) was 95 % of control; the T/C (dose: 200.0 mg/kg/injection, schedule: Q04DX002 (ip), vehicle: saline with Tween-80) was 95 % of control; the T/C (dose: 400.0 mg/kg/injection, schedule: Q04DX002 (ip), vehicle: saline with Tween-80) was 92 % of control.
Consider `CCOC(=O)c1ncc(Cl)cc1NC(=O)CC(=O)Nc1cc(Cl)cnc1C(=O)OCC`, for which the T/C runs as follows: under setting [4], 97 % of control; under setting [5], 91 % of control; under setting [6], 92 % of control.
For `Cc1cccc[n+]1Cc1cc(=O)[nH]c(=O)[nH]1`, in that order: 101 % of control, 98 % of control and 98 % of control.
Turning to `CCOC(=O)C(COS(C)(=O)=O)NS(=O)(=O)c1ccc(C)cc1` (stereo not given), the T/C was 98 % of control under setting [1], 104 % of control under setting [2] and 95 % of control under setting [3].
Regarding `COC1OC(COS(=O)(=O)c2ccc(C)cc2)C(OC(=O)c2ccccc2)C(OC(=O)c2ccccc2)C1OS(=O)(=O)c1ccc(C)cc1` (stereo not given), the T/C by setting is: (dose: 25.0 mg/kg/injection, schedule: Q04DX002 (ip), vehicle: Klucel (hydroxypropylcellulose) (HPC)) 88 % of control; (dose: 50.0 mg/kg/injection, schedule: Q04DX002 (ip), vehicle: Klucel (hydroxypropylcellulose) (HPC)) 95 % of control; under setting [7], 88 % of control; under setting [8], 109 % of control and 88 % of control; under setting [9], 109 % of control.
On to `O=C(Nc1ccccc1)SCCSC(=O)Nc1ccccc1`, for which the T/C by setting is: (dose: 100.0 mg/kg/injection, schedule: Q01DX001 (ip), vehicle: saline with Tween-80) 88 % of control; (dose: 100.0 mg/kg/injection, schedule: Q04DX003 (ip), vehicle: saline with Tween-80) 97 % of control; (dose: 200.0 mg/kg/injection, schedule: Q01DX001 (ip), vehicle: saline with Tween-80) 88 % of control; (dose: 200.0 mg/kg/injection, schedule: Q04DX003 (ip), vehicle: saline with Tween-80) 88 % of control; (dose: 400.0 mg/kg/injection, schedule: Q01DX001 (ip), vehicle: saline with Tween-80) 90 % of control; (dose: 400.0 mg/kg/injection, schedule: Q04DX003 (ip), vehicle: saline with Tween-80) 87 % of control.
For the compound `O=S1(=O)C=C(Br)c2ccccc21`, the T/C reads like this: under setting [10], 101 % of control; under setting [11], 91 % of control; under setting [12], 91 % of control; under setting [13], 96 % of control; under setting [14], 90 % of control.
For `COc1ccc(C=NCCN=Cc2ccc(OC)cc2)cc1`, the T/C is 88 % of control (dose: 50.0 mg/kg/injection, schedule: Q01DX009 (ip), vehicle: Klucel (hydroxypropylcellulose) (HPC)); 106 % of control under setting [10]; 86 % of control under setting [11]; 104 % of control under setting [12]; 90 % of control under setting [14].
With `c1cnon1`, the T/C under setting [15] is 102 % of control, the T/C under setting [16] was 102 % of control and the T/C under setting [17] is 95 % of control.
Take `O=C(C(O)C(O)C(O)C(O)CO)N1CCC(c2ccccc2)(c2ccccc2)CC1` (stereo not given): the T/C was 91 % of control (dose: 100.0 mg/kg/injection, schedule: Q01DX003 (ip), vehicle: saline); 94 % of control (dose: 200.0 mg/kg/injection, schedule: Q01DX003 (ip), vehicle: saline); 87 % of control (dose: 400.0 mg/kg/injection, schedule: Q01DX003 (ip), vehicle: saline).
Consider `CSCC(N)CO` (stereo not given), for which the T/C (dose: 100.0 mg/kg/injection, schedule: Q01DX009 (ip), vehicle: saline) was 94 % of control; the T/C under setting [4] is 100 % of control; the T/C (dose: 200.0 mg/kg/injection, schedule: Q01DX009 (ip), vehicle: saline) was 100 % of control; the T/C under setting [5] was 103 % of control; the T/C (dose: 400.0 mg/kg/injection, schedule: Q01DX009 (ip), vehicle: saline) was 100 % of control; the T/C under setting [6] was 103 % of control.
On to `NC(=O)COc1ccc(Cl)c2ccccc12`, for which the T/C reads like this: under setting [1], 96 % of control; under setting [7], 86 % of control; under setting [2], 102 % of control; under setting [8], 99 % of control; under setting [3], 86 % of control; under setting [9], 99 % of control.
As to `O=S(=O)(O)SCCNC1CCC(NCCSS(=O)(=O)O)CC1` (stereo not given), the T/C under setting [4] was 105 % of control, the T/C under setting [5] is 116 % of control and the T/C under setting [6] was 114 % of control.
With `O=C(OC1CC2CC1C1CSCC21)c1ccc([N+](=O)[O-])cc1` (stereo not given), the T/C is, setting by setting: under setting [10], 101 % of control; under setting [11], 105 % of control; under setting [12], 103 % of control; under setting [13], 105 % of control; under setting [18], 103 % of control; under setting [14], 97 % of control.
Turning to `O=C(COc1ccccc1C(=O)O)NCc1ccc(Cl)cc1`, the T/C (dose: 100.0 mg/kg/injection, schedule: Q04DX003 (ip), vehicle: gum acacia) was 97 % of control; the T/C (dose: 200.0 mg/kg/injection, schedule: Q04DX003 (ip), vehicle: gum acacia) was 95 % of control; the T/C (dose: 400.0 mg/kg/injection, schedule: Q04DX003 (ip), vehicle: gum acacia) is 96 % of control.
Turning to `O=C(Nc1ccccc1F)OCCc1ccccn1`, the T/C under setting [7] was 102 % of control, the T/C under setting [8] was 105 % of control and the T/C under setting [9] is 91 % of control.
Take `CCOC(=O)c1cnc(C)nc1Nc1ccccc1Br`: the T/C runs as follows: under setting [11], 98 % of control; under setting [13], 93 % of control; under setting [14], 101 % of control.
For `C[N+](C)(C)CC(O)CCl` (stereo not given), the T/C runs as follows: under setting [15], 95 % of control; under setting [16], 102 % of control.
In the case of `NC(=O)c1cn[nH]c1N`, the T/C runs as follows: under setting [1], 96 % of control; under setting [10], 95 % of control and 87 % of control and 93 % of control; under setting [7], 100 % of control and 102 % of control; under setting [11], 106 % of control and 93 % of control; under setting [2], 104 % of control; under setting [12], 93 % of control and 95 % of control. For the same compound, the T/C is, setting by setting: under setting [8], 96 % of control and 120 % of control; under setting [13], 100 % of control and 91 % of control; under setting [3], 96 % of control; under setting [18], 97 % of control and 123 % of control and 93 % of control; under setting [9], 100 % of control and 102 % of control; under setting [14], 87 % of control and 93 % of control.
Regarding `CC12CCC(C1)C(C)(C)C2C(N)=O` (stereo not given), the T/C is, setting by setting: under setting [11], 93 % of control; under setting [13], 93 % of control.
On to `CS(=O)(=O)OCCN(CCOS(C)(=O)=O)c1ccc(C=Nc2ccc(C(=O)O)c(O)c2)cc1`, for which the T/C was 117 % of control (dose: 6.25 mg/kg/injection, schedule: Q04DX003 (ip), vehicle: saline with Tween-80); 168 % of control (dose: 12.0 mg/kg/injection, schedule: Q01DX009 (ip), vehicle: saline with Tween-80); 112 % of control (dose: 16.5 mg/kg/injection, schedule: Q04DX003 (ip), vehicle: saline with Tween-80); 170 % of control (dose: 18.0 mg/kg/injection, schedule: Q01DX009 (ip), vehicle: saline with Tween-80); 121 % of control (dose: 25.0 mg/kg/injection, schedule: Q04DX003 (ip), vehicle: saline with Tween-80); 113 % of control (dose: 37.5 mg/kg/injection, schedule: Q04DX003 (ip), vehicle: saline with Tween-80).
Consider `CCC1CN2CCc3cc(OC)c(OC)cc3C2CC1CC1c2cc(OC)c(OC)cc2CCN1C(=O)CNC(=O)OC(C)(C)C` (stereo not given), for which the T/C is 97 % of control under setting [15], 101 % of control under setting [16] and 109 % of control under setting [17].
